Assay results: patent US6150382A, “Thio acid derived monocyclic n-heterocyclics as anticoagulants” (Berlex Laboratories, Inc., priority 1999, dated 2000)
Where a SMILES comes first, the peptide text is derived from it. [ ]: non-standard residue; d: D form. The star is where a group is joined. pNA = O=[N+]([O-])c1ccc(N*)cc1

Experiments:
[1] = target: T1, Human tissue plasminogen activator (tPA) (Two chains, Sigma) (Homo sapiens, UniProt P00750); assay: In vitro chromogenic assay for tissue plasminogen activator; format: biochemical; settings: substrate concentration stated equal to Km under the present assay conditions; pH 7.5, ambient temperature; read-out: Km (S2288)
T1 construct: purchased Sigma
T1 sequence (P00750 311-562 limits assumed): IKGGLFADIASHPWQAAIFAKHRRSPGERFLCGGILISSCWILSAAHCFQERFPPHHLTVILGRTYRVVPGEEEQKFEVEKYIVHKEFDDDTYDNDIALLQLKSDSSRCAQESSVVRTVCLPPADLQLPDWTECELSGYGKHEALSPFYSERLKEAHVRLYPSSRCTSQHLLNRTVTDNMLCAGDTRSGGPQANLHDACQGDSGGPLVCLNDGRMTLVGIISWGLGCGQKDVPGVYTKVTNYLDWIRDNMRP
T1 sequence (P00750 36-310 partner limits assumed): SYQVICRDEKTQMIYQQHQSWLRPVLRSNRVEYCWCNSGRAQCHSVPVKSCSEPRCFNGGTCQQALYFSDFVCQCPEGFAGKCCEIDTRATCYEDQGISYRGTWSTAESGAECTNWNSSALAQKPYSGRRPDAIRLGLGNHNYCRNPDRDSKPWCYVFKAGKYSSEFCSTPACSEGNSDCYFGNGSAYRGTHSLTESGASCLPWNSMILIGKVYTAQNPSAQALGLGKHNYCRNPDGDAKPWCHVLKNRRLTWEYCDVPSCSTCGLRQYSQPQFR
Method: (§1) The activities were determined as an initial rate of cleavage of the peptide p-nitroanilide by the enzyme. The cleavage product, p-nitroaniline, absorbs at 405 nm with a molar extinction coefficient of 9920M^-1 cm^-1.
(§2) 50 mM Tris HCl, 150 mM NaCl, 2.5 mM CaCl2, and
3. Human tissue plasminogen activator (tPA) (Two chains, Sigma) stock solution: 1 mg/mL, stored at -80° C. (working solution (2×): 1361 ng/mL in assay buffer, prepare prior to use).
3. S2288 (tPA assay) stock solution: 10 mM in deionized H2 O, stored at 4° C. (working solution (4×): 1484 μM in assay buffer).
(§3) Assays were performed in 96-well microtiter plates in a total volume of 200 μl. […] Concentrations of the standard inhibitor compound in the assay were from 5 μM to 0.021 μM in 1 to 3 dilution. Concentration of the test compounds in the assay typically were from 10 μM to 0.041 μM in 1 to 3 dilution. For potent test compounds, the concentrations used in the factor Xa assay were further diluted 100 fold (100 nM to 0.41 nM) or 1000 fold (10 nM to 0.041 nM). […]
(§4) The enzyme kinetics were measured at 405 nm at 10 seconds intervals for five minutes in a THERMOmax plate reader at ambient temperature.
(§5) Enzyme rates were calculated as mOD/min based on the first two minutes readings. The IC50 values were determined by fitting the data to the log-logit equation (linear) or the Morrison equation (non-linear) with an EXCEL spread-sheet. […]

Human thrombin = target: T2, Human thrombin (Homo sapiens, UniProt P00734); assay: In vitro chromogenic assay for thrombin; format: biochemical; settings: substrate concentration stated equal to Km under the present assay conditions; pH 7.5, ambient temperature; read-out: Km (S2302)
T2 construct: forms the prothrombinase complex which converts prothrombin to thrombin; purchased Enzyme Research Lab
Method: as §1, §2
2. Human thrombin stock solution: Stored at -80° C. (working solution (2×): 1200 ng/mL or 40 nM in assay buffer, prepare prior to use).
2. S2302 (Thrombin assay) stock solution: 10 mM in deionized H2 O, stored at 4° C. (working solution (4×): 1200, μM in assay buffer).
as §3, §4, §5

Structure (SMILES)	Km [1]	Km (Human thrombin)
CC[C@@H](C)[C@@H](N)C(=O)N1CCC[C@H]1C(=O)N[C@@H](CCCN=C(N)N)C(=O)Nc1ccc([N+](=O)[O-])cc1 [Example S2288] (H-[dI]-Pro-Arg-pNA)	371 µM	–
N=C(N)NCCC[C@H](NC(=O)[C@H](Cc1ccccc1)NC(=O)[C@H]1CCCN1)C(=O)Nc1ccc([N+](=O)[O-])cc1 [Example S2302] (H-[dP]-Phe-Arg-pNA)	–	300 µM
